Molecules are shown by their SMILES. Residues, ends and D or L forms follow the SMILES beside them. *: point of attachment. Cbz = O=C(OCc1ccccc1)*

The subject of one data set is H1975 cells. The experiment in a line: CCK-8 cell viability assay, H1975. Type of data set: cell-based. As to conditions: Homo sapiens, NCI-H1975; CCK-8, 48 h, EGFR L858R/T790M. How it is done: (§1) Cell proliferation was measured by Cell Counting Kit‐8 (CCK‐8) assay (Bestbio, Shanghai, China). Cells were cultured in 96‐well plates at a concentration of 7 × 10^3/well for 24 h. If necessary, cells were pretreated with 25 or 50 μM of Z‐VAD‐FMK for 4 h. Then cells were treated with indicated concentrations of compounds for 48 h. Supernatant was totally removed and 100 μL of CCK‐8 solution was added to each well and cultured for another 2 h at 37 °C. Cell viability was quantified using a SpectraMax M2e (Molecular Devices, San Jose, CA, USA) at 450 nm. Cell viability was calculated for each well as (absorbance 450 nm of treated cells/absorbance 450 nm of control cells) × 100%. Assays were performed on three independent experiments.
On the technique in general: Formazan colour is commonly taken as a measure of viable cells.

In the next data set the test system is A549 cells. The experiment in a line: CCK-8 cell viability assay, A549. Conditions: for IC50: Homo sapiens, A549, CCK-8, 48 h, EGFR wild-type. Type of data set: cell-based. As to the method: as §1, with “Then cells were treated with indicated concentrations of compounds for 48 h.” left out
The test system of a further data set is Mcl-1. The experiment in a line: Western blot of Mcl-1 protein level in A549 cells. The class given is cell-based. As to conditions: 8 h.
The target of a further data set is PI3Ka (Homo sapiens, UniProt P42336). The experiment in a line: Kinase inhibition ELISA, PI3Ka. Type of data set: biochemical. As to conditions: ELISA kinase assay. From the text: (§2) ELISA was used to determine the inhibitory effect of Ibr‐7 on five kinases after molecular modification. […] Since p‐S6 is the downstream functional factor that controls the translational process, we attempted to determine the role of p‐S6 in the Ibr‐7 antitumor effect.
Sequence of PI3Ka (P42336 whole entry): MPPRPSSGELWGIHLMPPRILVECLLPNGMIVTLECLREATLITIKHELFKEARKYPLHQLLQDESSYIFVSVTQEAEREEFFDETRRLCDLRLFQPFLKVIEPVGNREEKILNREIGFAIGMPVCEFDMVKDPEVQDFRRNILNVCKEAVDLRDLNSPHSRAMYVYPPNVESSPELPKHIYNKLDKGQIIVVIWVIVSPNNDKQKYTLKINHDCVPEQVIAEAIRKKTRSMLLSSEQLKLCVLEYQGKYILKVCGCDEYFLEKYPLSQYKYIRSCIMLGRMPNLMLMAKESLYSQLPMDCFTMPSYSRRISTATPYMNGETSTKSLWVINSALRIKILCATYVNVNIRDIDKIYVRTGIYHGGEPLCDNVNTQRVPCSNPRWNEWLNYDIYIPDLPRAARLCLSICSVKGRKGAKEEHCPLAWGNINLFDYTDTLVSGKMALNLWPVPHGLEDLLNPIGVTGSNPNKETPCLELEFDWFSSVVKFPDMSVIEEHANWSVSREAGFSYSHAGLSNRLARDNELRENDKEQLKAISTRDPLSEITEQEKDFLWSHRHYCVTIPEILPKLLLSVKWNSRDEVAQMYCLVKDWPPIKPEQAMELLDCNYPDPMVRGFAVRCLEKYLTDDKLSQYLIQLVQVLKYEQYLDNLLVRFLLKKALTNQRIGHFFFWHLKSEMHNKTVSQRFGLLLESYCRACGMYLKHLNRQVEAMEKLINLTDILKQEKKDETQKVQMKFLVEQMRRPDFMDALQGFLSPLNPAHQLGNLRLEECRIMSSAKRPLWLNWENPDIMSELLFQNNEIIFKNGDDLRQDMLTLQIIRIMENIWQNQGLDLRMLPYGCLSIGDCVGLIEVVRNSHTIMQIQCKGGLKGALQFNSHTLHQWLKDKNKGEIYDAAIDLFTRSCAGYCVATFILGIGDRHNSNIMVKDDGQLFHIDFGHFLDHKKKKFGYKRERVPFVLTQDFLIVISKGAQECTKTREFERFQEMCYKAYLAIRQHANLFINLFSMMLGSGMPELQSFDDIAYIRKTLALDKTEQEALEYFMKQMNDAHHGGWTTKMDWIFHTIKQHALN
Sequence of PI3Ka (P27986 whole entry partner): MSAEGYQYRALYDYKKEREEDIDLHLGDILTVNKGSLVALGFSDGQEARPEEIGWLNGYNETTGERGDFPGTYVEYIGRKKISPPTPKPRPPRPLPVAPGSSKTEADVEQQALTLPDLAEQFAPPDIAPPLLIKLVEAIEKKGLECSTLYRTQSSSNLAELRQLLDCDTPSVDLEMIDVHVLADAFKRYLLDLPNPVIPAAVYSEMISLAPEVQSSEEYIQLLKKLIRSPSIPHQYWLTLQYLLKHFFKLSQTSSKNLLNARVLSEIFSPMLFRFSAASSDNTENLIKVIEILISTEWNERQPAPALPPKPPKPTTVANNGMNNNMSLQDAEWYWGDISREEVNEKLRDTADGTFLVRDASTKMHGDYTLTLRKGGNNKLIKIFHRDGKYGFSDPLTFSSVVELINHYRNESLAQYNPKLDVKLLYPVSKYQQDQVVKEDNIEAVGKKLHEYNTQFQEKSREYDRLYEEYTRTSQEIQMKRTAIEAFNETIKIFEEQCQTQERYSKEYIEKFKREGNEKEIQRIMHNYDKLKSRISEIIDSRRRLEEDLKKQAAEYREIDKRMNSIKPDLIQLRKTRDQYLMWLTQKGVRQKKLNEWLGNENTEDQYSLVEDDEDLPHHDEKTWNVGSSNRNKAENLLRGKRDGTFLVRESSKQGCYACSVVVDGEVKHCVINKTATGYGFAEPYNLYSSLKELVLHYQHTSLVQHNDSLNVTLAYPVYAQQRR

Data set [1] addresses mTOR (Homo sapiens, UniProt P42345). The experiment in a line: Kinase inhibition ELISA, mTOR. Type of data set: biochemical. Conditions: ELISA kinase assay.
Excerpt: as §2
For orientation: In an ELISA, binding on a coated surface is turned into a signal by an enzyme label.

The test system of data set [2] is primary lung cancer cells. The experiment in a line: Collagen gel droplet embedded 3D-culture (CD-DST) of primary lung cancer cells. Type of data set: cell-based. Conditions: Homo sapiens; 15 primary lung cancer samples, 4 μM for 24 h, then cultured another 5 days, neutral red; read-out: viable cell percentage. How it is done:
Collagen gel droplet embedded 3D‐culture system (CD‐DST) system was performed using a Tumor chemo‐sensitivity assay kit provided by Guangzhou Darui Biotechnology Co., Ltd (Guangzhou, China) (Hou et al., 2017). Briefly, 0.1–0.5 g freshly dissected human lung cancer tissues were digested by trypsin and incubated in collagen gel‐coated flasks. Then, cells were collected and incubated in a collagen gel droplet at the density of 4000 cells per droplet (the volume of each droplet was 30 μL). […] Cells were visualized by neutral red stain and observed using cell analysis system DR6690 (Guangzhou Darui Biotechnology Co., Ltd). Survival rates were calculated as (absorbance 540 nm of treatment group/absorbance 540 nm of control group) × 100%.
Table S2. Cell viability of 15 primary lung cancer cells after treatment with 4 μM of compounds for 24 h, and cultured for another 120 h before neutral red stain and fixation. Cell viability was calculated observed using specific cell analysis system DR6690 (Guangzhou Darui Biotechnology Co., Ltd, Guangzhou, China). Survival rates were calculated as (O.D. 540nm treatment group/O.D. 540nm control group) × 100%.

The test system of another data set is EIF2S2. The experiment in a line: SILAC phosphoproteomics in A549 cells, EIF2S2. The class given is cell-based. Conditions: 8 μM, 8 h, treated versus untreated. As to the method: (§3) A549 cells were cultured in F12 and supplemented with either (U‐12C6)‐L‐lysine (light) or (U‐13C6)‐L‐lysine (heavy) for at least eight generations. The heavy labeling efficiency was measured by mass spectrometer analysis. Cells were continuously maintained in SILAC medium until they reached the desired confluence. Cells were treated with 8 μM of Ibr‐7 for 8 h, and then harvested by trypsinization. The enriched fractions were analyzed by mass spectrometry.

Data set [3] in a line: Pharmacokinetics in SD rat. The class given is in vivo. Conditions: po, intragastric 30 mg/kg. As to the method: Table S3. PK parameters of Ibr-7 in SD rat (i.g 30 mg/kg). Ibr-7 was orally administrated at the dose of 30 mg/kg. At each time point, 0.1 ml of rat blood was gained through retro-orbital plexus and then centrifuged at 5,000 rpm, 4 ℃ for 10 min. 10 μl of sample was mixed with 100 μl of internal reference (Buspirone 50 ng/ml, terfenadine 50 ng/ml), and vortexed for 60 s. After centrifuging at 12,000 rpm for 3 min, the supernatant was collected and transferred to an equal volume of distilled water into the 96-well plate. The final injection volume was 10 μl. Samples were analyzed by LC-MS/MS (API 4000QTRAP) and data was processed by Analyst v 1.5.1.

The next data set relates to H460 cells. The experiment in a line: CCK-8 cell viability assay, H460. Conditions: Homo sapiens, NCI-H460; CCK-8, 48 h, EGFR wild-type. Type of data set: cell-based. As to the method:
as §1

Data set [4] has as its target T1, EGFR (Homo sapiens, UniProt P00533). The experiment in a line: Kinase inhibition ELISA, EGFR. Type of data set: biochemical. Conditions: ELISA kinase assay.
Excerpt: as §2

The test system of the next data set is RPS6. The experiment in a line: SILAC phosphoproteomics in A549 cells, RPS6. Type of data set: cell-based. As to conditions: 8 μM, 8 h, treated versus untreated. As to the method: as §3
For data set [5], the target named is T1, EGFR. The experiment in a line: SILAC phosphoproteomics in A549 cells, EGFR. Conditions: 8 μM, 8 h, treated versus untreated. Type of data set: cell-based. As to the method:
as §3

In data set [6] the test system is mTOR. The experiment in a line: SILAC phosphoproteomics in A549 cells, mTOR. The class given is cell-based. Conditions: 8 μM, 8 h, treated versus untreated. As to the method: as §3
A further data set has as its target AKT1 (Homo sapiens, UniProt P31749). The experiment in a line: Kinase inhibition ELISA, AKT1. The class given is biochemical. As to conditions: ELISA kinase assay.
Excerpt: as §2

Another data set relates to RPS6KA1. The experiment in a line: SILAC phosphoproteomics in A549 cells, RPS6KA1. The class given is cell-based. Conditions: 8 μM, 8 h, treated versus untreated. As to the method: as §3
A further data set concerns the target p70S6K (Homo sapiens, UniProt P23443). The experiment in a line: Kinase inhibition ELISA, p70S6K. As to conditions: ELISA kinase assay. Type of data set: biochemical.
Excerpt: as §2

For a further data set, the system named is PC-9 cells. The experiment in a line: CCK-8 cell viability assay, PC-9. Type of data set: cell-based. As to conditions: Homo sapiens, CCK-8, 48 h, EGFR exon 19 deletion. How it is done: as §1
The next data set relates to A549 xenograft. The experiment in a line: A549 tumor xenograft assay. Type of data set: in vivo. As to conditions: A549 xenograft nude mice, 60 mg·kg^−1 intragastric twice per day. As to the method:
All animal experiments were conducted according to the Institutional Animal Care and Use Committee (IACUC). A total of 5 × 10^6 A549 cells was resuspended in 200 μL PBS and injected subcutaneously into each 4‐week‐old female nude mice. Once the tumor volume had reached 100–200 mm^3, six mice were randomized into each group. […] Then, 2.375 mL of 20% HP‐beta‐cyclodextrin was added to the above mixture to make a final concentration of 6 mg·mL^−1. […] Tumor volumes were determined from caliper measurements of tumor length (L) and width (W) according to the formula (L × W^2)/2. The relative tumor volume (RTV) was calculated using the following formula: RTV = (tumor volume on measured day)/(tumor volume on day 0).

Another data set has as its system LARP1. The experiment in a line: SILAC phosphoproteomics in A549 cells, LARP1. Type of data set: cell-based. Conditions: 8 μM, 8 h, treated versus untreated. As to the method: as §3

T1 sequence (P00533 25-1210): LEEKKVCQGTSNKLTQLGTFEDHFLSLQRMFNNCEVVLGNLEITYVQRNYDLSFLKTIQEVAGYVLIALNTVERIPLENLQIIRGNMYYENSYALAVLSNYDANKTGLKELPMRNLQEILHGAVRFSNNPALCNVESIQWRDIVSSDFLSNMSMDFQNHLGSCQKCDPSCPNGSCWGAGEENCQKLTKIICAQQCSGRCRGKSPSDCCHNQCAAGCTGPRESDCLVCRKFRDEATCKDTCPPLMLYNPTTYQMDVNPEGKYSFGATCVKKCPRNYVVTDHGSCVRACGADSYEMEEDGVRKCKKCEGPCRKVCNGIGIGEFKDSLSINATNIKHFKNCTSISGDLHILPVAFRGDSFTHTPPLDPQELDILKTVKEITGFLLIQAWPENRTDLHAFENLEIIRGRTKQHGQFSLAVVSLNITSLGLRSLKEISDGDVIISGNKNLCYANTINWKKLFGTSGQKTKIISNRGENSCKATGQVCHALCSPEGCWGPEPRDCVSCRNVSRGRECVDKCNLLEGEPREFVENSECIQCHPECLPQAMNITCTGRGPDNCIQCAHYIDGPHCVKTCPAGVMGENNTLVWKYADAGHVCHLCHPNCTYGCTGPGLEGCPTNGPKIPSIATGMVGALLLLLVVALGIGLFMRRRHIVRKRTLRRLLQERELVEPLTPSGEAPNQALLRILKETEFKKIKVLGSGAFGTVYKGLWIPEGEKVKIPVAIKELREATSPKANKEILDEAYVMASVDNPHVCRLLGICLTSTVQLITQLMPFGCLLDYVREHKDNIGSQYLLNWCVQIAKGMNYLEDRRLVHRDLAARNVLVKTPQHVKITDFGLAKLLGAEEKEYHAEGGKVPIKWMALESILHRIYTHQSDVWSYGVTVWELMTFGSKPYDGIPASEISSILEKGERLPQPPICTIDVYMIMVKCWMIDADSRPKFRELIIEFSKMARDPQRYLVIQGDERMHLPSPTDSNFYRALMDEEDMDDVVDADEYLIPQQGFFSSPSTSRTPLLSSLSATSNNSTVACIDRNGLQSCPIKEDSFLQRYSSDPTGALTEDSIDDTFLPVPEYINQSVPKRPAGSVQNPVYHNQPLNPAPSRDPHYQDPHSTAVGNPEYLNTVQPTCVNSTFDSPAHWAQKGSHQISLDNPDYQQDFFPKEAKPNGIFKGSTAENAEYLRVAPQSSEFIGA
Sequence of p70S6K (P23443 whole entry): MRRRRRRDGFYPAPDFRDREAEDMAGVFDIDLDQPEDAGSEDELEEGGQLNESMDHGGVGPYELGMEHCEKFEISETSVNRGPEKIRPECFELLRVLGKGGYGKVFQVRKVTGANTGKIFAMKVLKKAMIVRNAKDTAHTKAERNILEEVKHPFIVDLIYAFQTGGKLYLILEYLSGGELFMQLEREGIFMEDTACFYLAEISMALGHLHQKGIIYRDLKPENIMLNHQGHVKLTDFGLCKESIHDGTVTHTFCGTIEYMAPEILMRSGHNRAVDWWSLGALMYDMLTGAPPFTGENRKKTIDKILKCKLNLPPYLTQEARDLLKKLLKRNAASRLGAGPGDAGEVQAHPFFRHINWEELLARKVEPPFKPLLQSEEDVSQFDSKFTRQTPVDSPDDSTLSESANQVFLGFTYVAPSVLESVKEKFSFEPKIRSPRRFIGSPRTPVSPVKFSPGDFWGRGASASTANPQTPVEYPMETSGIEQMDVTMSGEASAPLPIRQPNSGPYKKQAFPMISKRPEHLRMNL
Sequence of AKT1 (P31749 whole entry): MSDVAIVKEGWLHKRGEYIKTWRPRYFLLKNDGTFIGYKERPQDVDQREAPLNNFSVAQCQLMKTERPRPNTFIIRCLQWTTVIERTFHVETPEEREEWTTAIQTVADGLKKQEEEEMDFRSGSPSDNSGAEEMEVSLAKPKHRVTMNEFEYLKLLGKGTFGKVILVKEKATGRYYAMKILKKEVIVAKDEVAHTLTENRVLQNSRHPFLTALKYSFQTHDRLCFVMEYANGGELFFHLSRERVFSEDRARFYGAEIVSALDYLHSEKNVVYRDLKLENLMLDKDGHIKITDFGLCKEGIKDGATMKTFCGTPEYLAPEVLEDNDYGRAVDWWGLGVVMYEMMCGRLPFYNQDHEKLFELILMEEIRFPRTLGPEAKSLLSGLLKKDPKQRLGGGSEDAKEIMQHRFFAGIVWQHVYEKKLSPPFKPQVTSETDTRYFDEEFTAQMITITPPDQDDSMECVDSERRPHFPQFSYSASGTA
Protocol for Mcl-1: After treated with different concentrations of compounds, total proteins were extracted using RIPA lysing buffer. […] The membranes were blocked with 5% non‐fat milk at room temperature for 1 h, and then incubated with primary antibodies overnight at 4 °C. After washing with Tris buffered saline with Tween 20 (TBST), membranes were incubated with secondary antibodies at room temperature for another 1 h. The protein bands were visualized by adding ECL system WBKLS0050 (EMD Millipore, Billerica, MA, USA) and analyzed using Bio‐Rad Laboratories Quantity One software (Bio‐Rad).

For orientation: IC50 means the point on the concentration scale where inhibition reaches its midpoint. Low readings indicate higher potency, high ones lower potency. For `CC1(C)CCC(CN2CCN(c3ccc(C(=O)NS(=O)(=O)c4ccc(NCC5CCOCC5)c([N+](=O)[O-])c4)c(Oc4cnc5[nH]ccc5c4)c3)CC2)=C(c2ccc(Cl)cc2)C1` [ABT‐199], the 50% inhibitory concentration (IC50) in the data set on H1975 cells and in the data set on A549 cells was over 10 µM in each case. Moreover, the Mcl-1 band intensity with Mcl-1 is reported as 1.30.
Take `CC(C)C[C@@H](C=O)NC(=O)[C@H](CC(C)C)NC(=O)[C@H](CC(C)C)NC(=O)OCc1ccccc1` [MG‐132] (Cbz-Leu-Leu-Leu-aldehyde): in the data set on A549 cells (10 μM, 24 h, CCK-8), the “cytotoxicity on A549 cells” value is “no cytotoxicity effect”.
Regarding `C=CC(=O)N1CCC[C@@H](n2nc(-c3ccc(Oc4ccccc4)cc3)c3c(N)ncnc32)C1` [ibrutinib, Ibrutinib, reference compound], the IC50 against PI3Ka and against mTOR [1] was over 1 µM in each case. For the same compound, in [2], the viability at 4 µM turned out to be 88.1%.
With `C=CC(=O)Nc1cc(Nc2nccc(-c3cn(C)c4ccccc34)n2)c(OC)cc1N(C)CCN(C)C` [AZD‐9291], in data set [2], the viability at 4 µM is 57%.
The Cmax is the highest concentration seen after dosing. On to `C=C(Br)C(=O)N1CCCC(n2nc(-c3ccc(Oc4ccccc4)cn3)c3c(N)ncnc32)C1` (centres unmarked) [Ibr‐7], for which the “Decrease fold of phosphorylated EIF2S2, position 67” value with EIF2S2 came to 1.99 fold. Also, the “Decrease fold of phosphorylated EIF2S2, position 111” value with EIF2S2 was 1.58 fold. Besides, in data set [3], the maximum concentration (Cmax) was 304 ng/mL. In addition, the IC50 with H460 cells is 1 to 4 µM; at EGFR [4], 0.061 µM; in the data set on H1975 cells it was 1 to 4 µM; on PI3Ka, over 1 µM; on AKT1, over 1 µM; in the data set with A549 cells it was 1 to 4 µM. For the same compound, the 50% inhibitory concentration (IC50) against p70S6K was over 1 µM; against mTOR [1], over 1 µM; in the data set on PC-9 cells, 1 to 4 µM. The “Decrease fold of phosphorylated RPS6, position 244” value with RPS6 is reported as 2.17 fold. For the same compound, the “Decrease fold of phosphorylated EGFR, position 693” value at EGFR [5] turned out to be 1.76 fold. Besides, the “Decrease fold of phosphorylated EGFR, position 991” value at EGFR [5] amounted to 2.03 fold. For the same compound, the “Decrease fold of phosphorylated mTOR, position 2481” value in the data set on mTOR [6] is listed as 2.23 fold. Also, the “Decrease fold of phosphorylated RPS6KA1, position 359” value in the data set with RPS6KA1 was 1.59 fold. The “Decrease fold of phosphorylated RPS6KA1, position 363” value in the data set with RPS6KA1 amounted to 1.54 fold. In addition, the viability at 4 µM in data set [2] came out at 40.3%. Further, the “anti-tumor activity by relative tumor volume (RTV)” value in the data set on A549 xenograft was “the same anti‐tumor activity as ibrutinib”. The “effect on mice bodyweight” value with A549 xenograft was “without affecting the mice bodyweight”. In the data set on LARP1, the “Decrease fold of phosphorylated LARP1, position 548” value turned out to be 1.90 fold. Moreover, in the data set on LARP1, the “Decrease fold of phosphorylated LARP1, position 766” value is 4.70 fold. Also, the “Decrease fold of phosphorylated LARP1, position 824” value in the data set with LARP1 worked out at 2.34 fold.

The values are drawn from publication PMC6441926 (Molecular Oncology, 2019).
